What was measured:
M3 receptor in bladder = target: T1, M3 receptor in bladder (Rattus norvegicus, UniProt P08483); assay: Rat bladder in vitro binding assay, receptor block by selective ligand; conditions: bladder membranes
T1 construct: Membranes from rat bladder were prepared; from tissue; host or cells: rat bladder membranes
Description: (§1) Bladder was comprised of both M2 and M3 muscannic receptors. The ratio was typically 4:1 M2:M3. […] The following example illustrates the procedure for M3 bladder binding.
Membranes from rat bladder were prepared in a similar fashion to that used to isolate heart membrane above. […] To 50 μl of compound dilution in a 96-well assay plate was added an appropriate amount of rat heart membrane (usually 25 μl of membrane prep in 75 μl of 20 mM HEPES, 100 mM NaCl/10 mM MgCl2 at pH 7.5). The amount of membrane added depended in general on the results of signal optimization, and ranged from 12.5-25. Last, 50 μl of 2.12 nM 3H-N-methylscopolamine radioligand in compound dilution buffer was added. The total volume in each well was 200 μl. […] The filter plate was pre-blocked using 0.3% PEI for at least 15 mins., and then washed twice with 200 μl PBS. The assay plate was incubated for 1 hour at room temperature with gentle shaking. The contents of the assay plate was then transferred to the filter plate, and washed three times using 200 μl PBS. About 40 μl of scint was added to each well, the plate was allowed to sit at room temperature for 18 h, and then counted using a Packard Topcount NXT.

M2 receptor in bladder = target: T2, M2 receptor in bladder (Rattus norvegicus, UniProt P10980); assay: as above; conditions: blocking ligand 2 μM; bladder membranes
T2 construct: Membranes from rat bladder were prepared; from tissue; host or cells: rat bladder membranes
T2 sequence (P10980 1-466): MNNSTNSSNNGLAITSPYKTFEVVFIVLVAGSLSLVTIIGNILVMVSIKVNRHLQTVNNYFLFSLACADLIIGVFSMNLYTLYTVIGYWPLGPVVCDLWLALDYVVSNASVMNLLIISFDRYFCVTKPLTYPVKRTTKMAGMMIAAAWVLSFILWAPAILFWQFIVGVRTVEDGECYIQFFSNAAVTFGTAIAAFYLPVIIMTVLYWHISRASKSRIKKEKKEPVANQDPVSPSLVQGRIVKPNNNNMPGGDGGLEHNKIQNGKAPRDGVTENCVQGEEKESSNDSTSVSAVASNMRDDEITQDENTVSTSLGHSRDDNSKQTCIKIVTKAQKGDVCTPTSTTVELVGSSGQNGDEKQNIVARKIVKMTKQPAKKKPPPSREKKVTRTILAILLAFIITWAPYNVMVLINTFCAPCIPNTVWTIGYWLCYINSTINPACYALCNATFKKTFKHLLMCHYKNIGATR
Description: as §1
Membranes from rat bladder were prepared in a similar fashion to that used to isolate heart membrane above. […] To 50 μl of compound dilution in a 96-well assay plate was added an appropriate amount of rat heart membrane (usually 25 μl of membrane prep in 75 μl of 20 mM HEPES, 100 mM NaCl/10 mM MgCl2 at pH 7.5). The amount of membrane added depended in general on the results of signal optimization, and ranged from 12.5-25. Last, 50 μl of 2.12 nM 3H-N-methylscopolamine radioligand in compound dilution buffer was added. The total volume in each well was 200 μl. The final concentration of methoctramine was 2 μM. The filter plate was pre-blocked using 0.3% PEI for at least 15 mins., and then washed twice with 200 μl PBS. The assay plate was incubated for 1 hour at room temperature with gentle shaking. The contents of the assay plate was then transferred to the filter plate, and washed three times using 200 μl PBS. About 40 μl of scint was added to each well, the plate was allowed to sit at room temperature for 18 h, and then counted using a Packard Topcount NXT.

[1] = test system: oxotremorine response (intraluminal pressure of the bladder); assay: In vivo bladder assay; set-up: species or system rat; conditions: 0.005-0.01 mg/kg, IV; after oxotremorine 0.3 mg/kg SC; anesthetized male Sprague-Dawley rats
Description: Male Sprague-Dawley rats weighing 250-300 g were anesthetized with urethane (1.3 g/kg, i.p.), inactin (25 mg/kg, i.p.), and xylazine (4 mg, i.p.). The jugular (or femoral) vein was isolated and ligated and a small incision was made in the vein distal to the ligation. […]
For data analysis, the oxotremorine response (zero inhibition) was determined by measuring the mean pressure 1 minute prior to the antagonist injection. Then, to assess antagonist inhibition, mean pressure was measured beginning at 1 minute and ending 2 minutes after antagonist administration. […] The percent inhibition by the antagonist can be determined by the ratio of the decrease from the zero to 100% values. • The formula is: oxotremorine mean−treatment mean*100 oxotremorine mean−atropine mean.

T1 sequence (P08483 whole entry): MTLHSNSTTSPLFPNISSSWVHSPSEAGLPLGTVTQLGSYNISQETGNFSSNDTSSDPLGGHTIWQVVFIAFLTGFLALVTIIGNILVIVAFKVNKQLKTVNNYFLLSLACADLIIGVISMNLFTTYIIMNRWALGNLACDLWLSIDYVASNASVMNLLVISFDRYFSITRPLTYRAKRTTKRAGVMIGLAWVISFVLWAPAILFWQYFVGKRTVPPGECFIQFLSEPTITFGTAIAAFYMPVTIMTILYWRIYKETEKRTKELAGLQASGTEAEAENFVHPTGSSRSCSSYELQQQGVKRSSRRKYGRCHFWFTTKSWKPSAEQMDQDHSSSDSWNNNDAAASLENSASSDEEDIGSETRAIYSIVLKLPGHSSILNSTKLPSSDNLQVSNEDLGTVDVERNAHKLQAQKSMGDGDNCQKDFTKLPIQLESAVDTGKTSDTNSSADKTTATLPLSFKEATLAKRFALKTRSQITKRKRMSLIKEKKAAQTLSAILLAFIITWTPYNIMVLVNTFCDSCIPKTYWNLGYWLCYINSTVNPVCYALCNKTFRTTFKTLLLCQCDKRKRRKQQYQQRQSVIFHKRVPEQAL

SMILES | block of M3 receptor (M3 receptor in bladder; 2 μM Darifenacin) | block of the M2 receptor in bladder (M2 receptor in bladder) [%] | decrease in intraluminal pressure [1] | block of the M3 receptor in bladder (M3 receptor in bladder; final concentration of methoctramine 2 μM)
NC(=O)C(c1ccccc1)(c1ccccc1)[C@@H]1CCN(CCc2ccc3c(c2)CCO3)C1 [Darifenacin] | minimal | > 99 |  | 
CN1[C@@H]2CC[C@H]1C[C@@H](OC(=O)C(CO)c1ccccc1)C2 (some centres unmarked) [atropine] |  |  | 30-70% | 
COc1ccccc1CNCCCCCCNCCCCCCCCNCCCCCCNCc1ccccc1OC [methoctramine, Methoctramine] |  | > 99 |  | less than 40%

— US7456203B2, “Muscarinic receptor antagonists” (Theravance, Inc., priority 1999, dated 2008)
